This data set is described as follows: Plasma concentration of Verbindung A after oral administration to rhesus monkeys (determined by 3H-BIBU 52 ligand displacement on human platelets against a calibration curve). The format is in vivo, Rhesusaffen. The following applies: rhesus monkey, oral 1 mg/kg, Rhesusaffe, concentration of Verbindung A measured. As to the method:
Beispielsweise wurde die Konzentration der Verbindung A nach oraler Gabe der Verbindungen der Beispiele 1 (Verbindung B) und 1(1) (Verbindung C) der vorliegenden Erfindung im Plasma bestimmt und mit der Plasmakonzentration der Verbindung A nach oraler Gabe der Verbindung A verglichen.
Nach oraler Gabe von 1 mg/kg der zu untersuchenden Verbindungen am Rhesusaffen wird die Konzentration der Verbindung A im Plasma 4, 8, 12 und 24 Stunden nach Substanzgabe gemessen. Hierzu wird das Rhesusplasma mit einer Suspension von Humanthrombozyten in Plasma und ^3H-BIBU 52 (siehe DE-A-4,214,245) als Ligand inkubiert. Der freie und gebundene Ligand wird durch Zentrifugation getrennt und durch Szintillationszählung quantitativ bestimmt. Aus der Menge des gebundenen Liganden wird anhand einer Eichkurve die Konzentration der Verbindung A errechnet.
Dazu wird aus einer Antikubitalvene Spenderblut entnommen und mit Trinatriumzitrat antikoaguliert (Endkonzentration: 13 mMol/l). Das Blut wird 10 Minuten bei 170 x g zentrifugiert und das überstehende plättchenreiche Plasma (PRP) abgenommen. Das Restblut wird noch einmal bei 3200 x g scharf abzentrifugiert und das überstehende plättchenarme Plasma (PPP) abgenommen.
Für die Eichkurve zur Berechnung der Konzentration wird zu 995 µl PPP 5 µl Lösung der Verbindung A zugesetzt (Endkonzentration 5000 nMol/l). Aus dieser Plasmaprobe werden mit PPP weitere Plasmaproben verdünnt bis zu einer Endkonzentration von 2,5 nMol/l.
Zu 150 µl Plasmaprobe vom Rhesusaffen oder Eichkurvenplasma werden 10 µl ^3H-BIBU 52 (Endkonzentration 10 nMol/l), 10 µl ^14C-Sucrose (370 Bq) und 80 µl PRP gegeben und bei Raumtemperatur 20 Minuten inkubiert. Anschließend werden die Proben 5 Minuten bei 2000 x g zentrifugiert und der Überstand abgezogen. 100 µl des Überstandes werden versetzt mit 100 µl NaOH 0,2 Mol/l, 15 µl HCl 5 Mol/l und 2 ml Szintillator und die ^3H- und ^14C-Radioaktivität quantitativ gemessen. Das Pellet wird in 200 µl NaOH 0,2 Mol/l gelöst. 180 µl davon werden versetzt mit 15 µl HCl 5 Mol/l und 2 ml Szintillator und die ^3H- und ^14C-Radioaktivität gemessen. Das im Pellet noch verbliebene Restplasma wird aus dem ^14C-Gehalt bestimmt und abgezogen. Die Menge des gebundenen Liganden wird aus dem ^3H-Gehalt bestimmt. Die Menge des gebundenen Liganden wird gegen die Konzentration des Eichkurvenplasmas aufgetragen. Die Konzentration der Verbindung A im Rhesusplasma wird aus der Menge des gebundenen Liganden in der betreffenden Plasmaprobe im Vergleich mit der Eichkurve errechnet.
Die nachfolgende Tabelle enthält die gefundenen Werte: […]

The values below come from patent EP1102746B1, “SUBSTITUTED PHENYLAMIDINES WITH ANTITHROMBOTIC ACTION” (Boehringer Ingelheim Pharma GmbH & Co.KG, priority 1998, dated 2000).

Regarding `N=C(N)c1ccc(NC(=O)CCC2CCN(CC(=O)O)CC2)cc1` [Verbindung A, 4-[2-[(4-Amidinophenyl)aminocarbonyl]ethyl]-1-carboxymethyl-piperidin], where the note is “4 h after dosing, read-out: Konz. von A in [nM], 4h”, the concentration at 4 h is 174 nM. Besides, the concentration at 8 h (8 h after dosing, read-out: Konz. von A in [nM], 8h) was determined as 38 nM. For the setting “12 h after dosing, read-out: Konz. von A in [nM], 12h”, the concentration at 12 h is 25 nM. In addition, the concentration at 24 h (24 h after dosing, read-out: Konz. von A in [nM], 24h) was 3 nM.
